What all share (experiment): Kinase selectivity, DiscoverX scanMAX Kinase assay panel (% control)
Common to all, as to type: binding

Test [1] concerns the target T1, kinases of the scanMAX Kinase assay panel (Homo sapiens, UniProt Q8TD19).
T1 construct: purchased DiscoverX Co. (contract measurement) scanMAX Kinase assay panel
T1 sequence (Q8TD19 1-979): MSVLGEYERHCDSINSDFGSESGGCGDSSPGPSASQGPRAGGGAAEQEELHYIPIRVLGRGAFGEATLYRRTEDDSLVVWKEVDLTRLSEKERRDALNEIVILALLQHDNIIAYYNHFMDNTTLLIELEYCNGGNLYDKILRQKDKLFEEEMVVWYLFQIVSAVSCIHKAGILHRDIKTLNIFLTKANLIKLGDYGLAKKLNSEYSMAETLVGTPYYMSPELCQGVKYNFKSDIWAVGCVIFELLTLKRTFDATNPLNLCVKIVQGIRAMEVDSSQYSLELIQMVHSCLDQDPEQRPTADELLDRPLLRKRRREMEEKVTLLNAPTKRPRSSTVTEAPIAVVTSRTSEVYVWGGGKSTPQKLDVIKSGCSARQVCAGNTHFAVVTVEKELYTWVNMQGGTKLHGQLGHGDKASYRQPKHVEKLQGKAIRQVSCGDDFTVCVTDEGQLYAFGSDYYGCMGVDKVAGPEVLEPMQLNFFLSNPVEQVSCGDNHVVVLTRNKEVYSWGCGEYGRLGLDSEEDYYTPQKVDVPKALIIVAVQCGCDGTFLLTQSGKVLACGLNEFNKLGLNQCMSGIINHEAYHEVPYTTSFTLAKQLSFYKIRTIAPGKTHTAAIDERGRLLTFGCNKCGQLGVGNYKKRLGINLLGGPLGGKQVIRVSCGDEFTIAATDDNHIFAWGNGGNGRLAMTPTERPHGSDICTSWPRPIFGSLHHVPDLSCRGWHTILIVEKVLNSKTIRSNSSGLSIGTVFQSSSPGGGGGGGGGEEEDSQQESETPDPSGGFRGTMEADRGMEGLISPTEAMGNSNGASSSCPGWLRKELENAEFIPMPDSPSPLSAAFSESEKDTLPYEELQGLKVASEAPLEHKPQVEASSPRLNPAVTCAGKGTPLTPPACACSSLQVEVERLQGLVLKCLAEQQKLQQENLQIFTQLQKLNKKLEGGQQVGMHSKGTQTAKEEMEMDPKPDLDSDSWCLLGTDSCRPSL
Conditions: NEK9; 1 uM. In a few lines: (§1)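 Single-point screen, 1 uM cpd in DMSO. % ctrl = (cpd − pos ctrl)/(neg ctrl − pos ctrl)×100; pos ctrl = 0%, DMSO neg ctrl = 100%. Hit cutoff <35%.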

Test [2] concerns the target T2, kinases of the scanMAX Kinase assay panel (Homo sapiens, UniProt Q08881).
T2 construct: purchased DiscoverX Co. (contract measurement) scanMAX Kinase assay panel
T2 sequence (Q08881 1-620): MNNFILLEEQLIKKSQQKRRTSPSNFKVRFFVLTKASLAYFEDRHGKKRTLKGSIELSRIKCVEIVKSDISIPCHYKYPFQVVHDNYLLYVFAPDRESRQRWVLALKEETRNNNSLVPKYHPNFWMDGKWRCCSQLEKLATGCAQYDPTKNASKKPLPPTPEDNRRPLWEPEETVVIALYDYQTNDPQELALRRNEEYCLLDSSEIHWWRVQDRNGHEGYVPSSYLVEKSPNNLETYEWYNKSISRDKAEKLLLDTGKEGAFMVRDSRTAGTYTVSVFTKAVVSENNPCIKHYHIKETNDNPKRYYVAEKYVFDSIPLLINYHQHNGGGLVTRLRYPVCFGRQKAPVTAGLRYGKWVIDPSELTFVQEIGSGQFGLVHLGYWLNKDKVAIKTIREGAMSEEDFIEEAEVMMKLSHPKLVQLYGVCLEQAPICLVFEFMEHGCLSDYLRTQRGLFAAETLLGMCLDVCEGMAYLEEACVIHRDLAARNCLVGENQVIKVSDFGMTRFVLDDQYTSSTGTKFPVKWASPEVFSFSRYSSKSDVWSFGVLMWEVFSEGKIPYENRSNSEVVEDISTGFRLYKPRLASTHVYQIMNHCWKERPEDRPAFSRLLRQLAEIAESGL
The conditions noted are these: ITK; 1 uM. In a few lines: as §1

Test [3] deals with T3, kinases of the scanMAX Kinase assay panel (Homo sapiens, UniProt P04049).
T3 construct: purchased DiscoverX Co. (contract measurement) scanMAX Kinase assay panel
The conditions noted are these: RAF1; 1 uM. An outline of the steps:
as §1

Test [4] deals with T4, kinases of the scanMAX Kinase assay panel (Homo sapiens, UniProt Q13163).
T4 construct: purchased DiscoverX Co. (contract measurement) scanMAX Kinase assay panel
T4 sequence (Q13163 1-448): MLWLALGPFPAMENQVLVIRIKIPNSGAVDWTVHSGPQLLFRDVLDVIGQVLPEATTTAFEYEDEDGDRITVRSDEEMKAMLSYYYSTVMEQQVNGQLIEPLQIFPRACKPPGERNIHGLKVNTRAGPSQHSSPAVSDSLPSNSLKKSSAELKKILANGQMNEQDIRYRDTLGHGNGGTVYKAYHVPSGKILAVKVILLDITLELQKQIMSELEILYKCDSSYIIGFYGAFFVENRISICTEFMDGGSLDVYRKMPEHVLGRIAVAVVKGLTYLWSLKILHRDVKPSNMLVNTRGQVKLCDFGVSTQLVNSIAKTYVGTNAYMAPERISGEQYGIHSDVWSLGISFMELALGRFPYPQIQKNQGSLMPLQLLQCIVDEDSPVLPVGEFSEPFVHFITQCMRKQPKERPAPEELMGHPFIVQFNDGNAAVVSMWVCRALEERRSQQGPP
The conditions noted are these: MEK5; 1 uM. In a few lines: as §1

For test [5], the target named is T5, kinases of the scanMAX Kinase assay panel (Homo sapiens, UniProt P42336, H1047L).
T5 construct: purchased DiscoverX Co. (contract measurement) scanMAX Kinase assay panel
Conditions: PIK3CA(H1047L); 1 uM. In a few lines:
as §1

For test [6], the target named is T6, kinases of the scanMAX Kinase assay panel (Homo sapiens, UniProt P10721).
T6 construct: purchased DiscoverX Co. (contract measurement) scanMAX Kinase assay panel
The conditions noted are these: 1 uM. An outline of the steps: as §1

T5 sequence (P42336 whole entry H1047L): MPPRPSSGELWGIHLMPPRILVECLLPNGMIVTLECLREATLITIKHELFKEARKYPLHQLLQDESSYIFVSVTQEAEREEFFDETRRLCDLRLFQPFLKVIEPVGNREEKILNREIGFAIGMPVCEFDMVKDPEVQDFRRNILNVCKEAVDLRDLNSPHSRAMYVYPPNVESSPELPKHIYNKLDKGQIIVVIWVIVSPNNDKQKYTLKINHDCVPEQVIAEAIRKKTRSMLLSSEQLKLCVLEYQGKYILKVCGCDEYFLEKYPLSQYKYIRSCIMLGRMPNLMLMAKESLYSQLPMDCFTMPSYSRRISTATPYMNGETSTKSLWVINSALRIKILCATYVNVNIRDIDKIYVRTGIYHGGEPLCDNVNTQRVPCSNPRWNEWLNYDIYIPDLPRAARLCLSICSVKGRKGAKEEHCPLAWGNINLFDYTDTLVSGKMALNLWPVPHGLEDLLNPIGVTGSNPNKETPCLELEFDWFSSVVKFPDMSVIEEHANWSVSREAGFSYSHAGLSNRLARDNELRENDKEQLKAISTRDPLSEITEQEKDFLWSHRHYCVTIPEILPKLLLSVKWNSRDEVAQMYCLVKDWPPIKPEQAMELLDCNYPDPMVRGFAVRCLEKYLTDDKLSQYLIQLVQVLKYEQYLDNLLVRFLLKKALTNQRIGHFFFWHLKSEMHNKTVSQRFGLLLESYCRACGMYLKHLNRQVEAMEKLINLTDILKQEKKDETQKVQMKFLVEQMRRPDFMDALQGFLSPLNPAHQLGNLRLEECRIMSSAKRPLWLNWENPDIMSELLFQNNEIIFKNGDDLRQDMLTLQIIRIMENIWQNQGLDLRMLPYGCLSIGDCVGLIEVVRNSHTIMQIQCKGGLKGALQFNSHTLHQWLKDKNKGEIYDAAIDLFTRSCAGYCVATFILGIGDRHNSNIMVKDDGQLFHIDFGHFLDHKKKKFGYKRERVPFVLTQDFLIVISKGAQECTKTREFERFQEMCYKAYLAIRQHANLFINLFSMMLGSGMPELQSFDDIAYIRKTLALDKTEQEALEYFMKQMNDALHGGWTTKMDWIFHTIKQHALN
T6 sequence (P10721 26-976): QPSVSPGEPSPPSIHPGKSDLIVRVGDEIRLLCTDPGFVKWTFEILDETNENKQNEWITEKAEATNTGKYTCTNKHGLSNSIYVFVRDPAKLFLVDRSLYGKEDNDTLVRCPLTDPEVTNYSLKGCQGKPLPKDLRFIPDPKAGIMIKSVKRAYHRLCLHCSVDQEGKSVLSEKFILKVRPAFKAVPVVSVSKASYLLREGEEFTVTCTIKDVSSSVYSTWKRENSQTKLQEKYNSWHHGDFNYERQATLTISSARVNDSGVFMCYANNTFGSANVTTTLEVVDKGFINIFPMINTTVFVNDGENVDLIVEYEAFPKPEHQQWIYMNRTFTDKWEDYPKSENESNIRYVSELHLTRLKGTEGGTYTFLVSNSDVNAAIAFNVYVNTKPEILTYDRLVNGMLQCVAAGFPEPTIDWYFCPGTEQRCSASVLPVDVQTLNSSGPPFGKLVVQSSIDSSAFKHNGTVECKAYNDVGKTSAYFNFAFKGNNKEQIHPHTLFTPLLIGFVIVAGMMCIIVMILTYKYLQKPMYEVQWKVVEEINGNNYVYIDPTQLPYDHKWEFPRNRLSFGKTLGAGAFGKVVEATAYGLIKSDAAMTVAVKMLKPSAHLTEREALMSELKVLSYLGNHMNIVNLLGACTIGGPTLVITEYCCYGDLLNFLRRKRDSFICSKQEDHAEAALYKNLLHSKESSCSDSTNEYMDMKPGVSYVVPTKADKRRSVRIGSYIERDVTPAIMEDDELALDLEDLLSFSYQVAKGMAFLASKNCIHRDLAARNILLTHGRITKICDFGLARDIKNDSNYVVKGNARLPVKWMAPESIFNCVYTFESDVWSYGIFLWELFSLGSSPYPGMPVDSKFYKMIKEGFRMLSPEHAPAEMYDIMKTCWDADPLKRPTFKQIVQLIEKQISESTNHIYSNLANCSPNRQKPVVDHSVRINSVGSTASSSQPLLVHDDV
T3 sequence (P04049 whole entry): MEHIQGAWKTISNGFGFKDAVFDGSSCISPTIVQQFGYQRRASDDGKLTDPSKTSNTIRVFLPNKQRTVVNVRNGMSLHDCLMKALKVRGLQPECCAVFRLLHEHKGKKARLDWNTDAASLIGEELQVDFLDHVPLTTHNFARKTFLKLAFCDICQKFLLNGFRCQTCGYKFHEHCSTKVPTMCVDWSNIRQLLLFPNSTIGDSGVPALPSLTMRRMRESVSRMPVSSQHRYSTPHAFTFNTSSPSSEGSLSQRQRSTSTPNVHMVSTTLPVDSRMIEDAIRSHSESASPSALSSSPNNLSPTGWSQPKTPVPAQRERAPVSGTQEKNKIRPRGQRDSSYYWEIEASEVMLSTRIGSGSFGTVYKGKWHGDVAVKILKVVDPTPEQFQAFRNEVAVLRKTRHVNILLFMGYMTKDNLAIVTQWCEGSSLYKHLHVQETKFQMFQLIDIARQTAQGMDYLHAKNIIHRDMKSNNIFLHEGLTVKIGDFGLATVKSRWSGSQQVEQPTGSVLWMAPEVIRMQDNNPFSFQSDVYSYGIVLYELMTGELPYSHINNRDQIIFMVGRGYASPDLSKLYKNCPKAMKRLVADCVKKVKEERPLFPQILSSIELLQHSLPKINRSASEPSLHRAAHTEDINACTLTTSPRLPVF

With `CNc1nc(Nc2ccc(C(=O)N3CCOCC3)cc2OC)nc2[nH]cc(C#N)c12` [Example 1, 2-((2-methoxy-4-(morpholine-4-carbonyl)phenyl)amino)-4-(methylamino)-7H-pyrrolo[2,3-d]pyrimidine-5-carbonitrile], the remaining binding at 1 µM in test [1] is 100%; in test [2] it was 99%; in test [3], 95%; in test [4], 47%; in test [5], 100%; in test [6] (KIT-autoinhibited), 59%. Also, the remaining binding at 1 µM in test [6] (KIT) is 48%.

For `CC1(Nc2nc(Nc3cnn([C@H]4CCN(C5COC5)C[C@@H]4F)c3Cl)nc3[nH]cc(C#N)c23)CC1` [Example 52, 2-((5-chloro-1-((3S,4S)-3-fluoro-1-(oxetane-3-yl)piperidine-4-yl)-1H-pyrazole-4-yl)amino)((1-methylcyclopropyl)amino)-7H-pyrrolo[2,3-d]pyrimidine-5-carbonitrile], the remaining binding at 1 µM in test [1] is 73%; in test [2] it was 9.7%; in test [3], 100%; in test [4] it was 0.05%; in test [5], 70%; in test [6] (KIT-autoinhibited) it was 0.1%. In test [6] (KIT), this molecule came in with a remaining binding at 1 µM of 0.15%.

Consider `CCNc1nc(Nc2ccc(C(=O)N3CCC(N4CCOCC4)CC3)cc2OC)nc2[nH]cc(C(F)(F)F)c12` [Example 104, (4-((4-(ethylamino)-5-(trifluoromethyl)-7H-pyrrolo[2,3-d]pyrimidine-2-yl)amino)-3-methoxyphenyl)(4-morpholinopiperidine-1-yl)methanone], for which the remaining binding at 1 µM stood at 99% in test [1]; 100% in test [2]; 100% in test [3]; 74% in test [4]; 88% in test [5]; 74% in test [6] (KIT-autoinhibited). In test [6] (KIT), this molecule had a remaining binding at 1 µM of 56%.

Values taken from patent US11208412B2 (DAEGU-GYEONGBUK MEDICAL INNOVATION FOUNDATION, priority 2017, dated 2021).
